How the values were obtained:
5637 RNASEH2B−/− cells = assay: ZIP synergy matrix and 7-day CTG viability assay, 5637 RNASEH2B−/− cells; format: cell-based; details: for concentration at maximum synergy, lower in RNASEH2B−/− than in RNASEH2B+/+ cells: FIGS. 1A and 1B
Experimental: (§1) FIG. 1B is chart showing ZIP synergy score matrix in RNASEH2B−/− cells. […] Score of >10 indicates synergy, while <(−10) indicates antagonism. Dashed lines represent the IC50 value of each compound in the respective cell line. […] Viability was measured with a 7-day CTG assay. Mean of three independent experiments±SD. Solid lines, non-linear least squares fit to a four-parameter dose-response model. IC50 values are indicated below panels. […] Viability was measured with a 7-day CTG assay. Mean of three technical replicates±SD. Solid lines, non-linear least squares fit to a four-parameter dose-response model. IC50 values are indicated below panels.

[1] = tested on: 5637 RNASEH2B+/+ and −/− cells; details: FIG. 5B
Experimental: FIG. 5A is a scheme showing the experimental design. 5637 cells were treated with niraparib alone or niraparib combined with an IC50 concentration of Compound 121 for indicated times with or without removal of compounds. Cell viability was analyzed by a CellTiter Glo (CTG) assay 168 h post treatment.
FIG. 5B is a chart showing apparent niraparib IC50 values in 5637 RNASEH2B+/+ and −/− cells from experiments described in FIG. 5A. Values were obtained by fitting mean data from three independent experiments to a four-parameter dose-response model. Error bars, 95% confidence interval (CI).
To guide the combined dosing of Compound 121 and niraparib in RNASEH2B-deficient tumor cells, a continuous 168 h concomitant treatment of 5637 RNASEH2B+/+ and −/− cells with both compounds was compared to either a 48 or 72 h treatment followed by removal of compounds and growth in drug-free media (FIG. 5A).

[2] = tested on: RPE1-hTERT TP53−/− RNASEH2B−/− cells; assay: 6-day CTG viability assay, RPE1-hTERT TP53−/− RNASEH2B−/− cells; format: cell-based; details: Compound 43 combined with niraparib; compared with Compound 121 plus niraparib; FIGS. 3A and 3B
Experimental: Viability was measured with a 6-day CTG assay. Mean of three independent experiments±SD. Solid lines, non-linear least squares fit to a four-parameter dose-response model. IC50 values are indicated below panels. […] Viability was measured with a 6-day CTG assay. Mean of three independent experiments±SD. Solid lines, non-linear least squares fit to a four-parameter dose-response model. IC50 values are indicated below panels.

[3] = tested on: RPE1-hTERT TP53−/− CDK12−/− cells; assay: 48 h treatment, CTG viability at day 6, RPE1-hTERT TP53−/− CDK12−/− cells; format: cell-based; details: 48-hr treatment with combination of Compound 121 and niraparib; FIGS. 7A and 7B
Experimental: (§2) Cells were treated for 48 h, followed by removal of the compounds and growth in fresh media. Viability was measured at day 6 by a CTG assay. Mean of three independent experiments±SD. Solid lines, non-linear least squares fit to a four-parameter dose-response model. IC50 values are indicated below panels. […] Cells were treated for 48 h, followed by removal of the compounds and growth in fresh media. Viability was measured at day 6 by a CTG assay. Mean of three independent experiments±SD. Solid lines, non-linear least squares fit to a four-parameter dose-response model. IC50 values are indicated below panels.

5637 RNASEH2B+/+ cells = assay: ZIP synergy matrix and 7-day CTG viability assay, 5637 RNASEH2B+/+ cells; format: cell-based; details: combination of Compound 121 and niraparib, FIG. 1A
Experimental: as §1, with “1A” for “1B”, “RNASEH2B+/+” for “RNASEH2B−/−”

DLD1 BRCA2−/− cells = assay: 48 h treatment, CTG viability, DLD1 BRCA2−/− cells; format: cell-based; details: 48-hr treatment with combination of Compound 121 and talazoparib; FIGS. 8A and 8B
Experimental: (§3) FIG. 8A is a chart showing dose response curves of DLD1 BRCA2+/+ cells to talazoparib in the absence (DMSO) or presence of indicated concentrations of Compound 121. Cells were treated for 48 h, followed by removal of the compounds and growth in fresh media. Viability was measured at day 6 by a CTG assay. Mean of three independent experiments±SD. Solid lines, non-linear least squares fit to a four-parameter dose-response model. IC50 values are indicated below panels.
as §3, with “8B” for “8A”, “BRCA2−/−” for “BRCA2+/+”, “9” for “6”

[4] = tested on: ALT-positive (ALT+) cancer cell lines; assay: Cell viability of ALT+ and ALT− cancer cell line panels; format: cell-based; details: combination of low-nanomolar doses of Compound 121 and talazoparib; five ALT+ lines; FIGS. 9A and 9B
Experimental: FIG. 9A is a chart showing cell viability for ALT+ and ALT− cell lines that were untreated, treated with talazoparib alone, treated with compound 121 alone, or treated with a combination of talazoparib and compound 121.
FIG. 9B is a chart showing the cell viability for ALT+ and ALT− cells that were treated with a combination of talazoparib and compound 121.

MIAPACA2 ATM−/− cells = assay: 48 h treatment, CTG viability at day 6, MIAPACA2 ATM−/− cells; format: cell-based; details: 48 h treatment with combination of niraparib and Compound 121; MIAPACA2 ATM CRISPR knockout; FIGS. 6A and 6B
Experimental: as §2, with “technical replicates±SD.” for “independent experiments±SD.”

[5] = combination of Compound 121 and niraparib, 5637 cells

Row | Compound | concentration at maximum synergy, lower in RNASEH2B−/− than in RNASEH2B+/+ cells (5637 RNASEH2B−/− cells; [5]) | shift of apparent IC50 of niraparib from RNASEH2B+/+ to RNASEH2B−/− cells (5637 RNASEH2B−/− cells; in presence of Compound 121, 5637 cells, 7-day CTG, FIGS. 2A and 2B) | apparent IC50 value of niraparib ([1]; in presence of Compound 121 (IC50 concentration), dosed continuously for 168 h) | difference in apparent IC50 values of niraparib when treatment shortened ([1]; with Compound 121, 72 or 48 h treatment then drug-free media vs 168 h continuous) | sensitization of RNASEH2B-deficient cells [2] | sensitization of isogenic cell line lacking CDK12 [3] | synergy with niraparib (ZIP synergy score) (5637 RNASEH2B+/+ cells) | sensitization of isogenic cell line lacking BRCA2 (DLD1 BRCA2−/− cells) | sensitization of RNASEH2B-deficient cells (5637 RNASEH2B−/− cells; Compound 121 combined with talazoparib, 5637 cells, 7-day CTG, FIGS. 4A and 4B) | synergy with niraparib (ZIP synergy score) (5637 RNASEH2B−/− cells; combination of Compound 121 and niraparib, 5637 RNASEH2B−/− cells, FIG. 1B) | sensitivity of ALT+ panel relative to ALT− control panel [4] | synergistic sensitization of ATM−/− clone (MIAPACA2 ATM−/− cells)
1 | NC(=O)c1cccc2cn(-c3ccc([C@@H]4CCCNC4)cc3)nc12 [niraparib, reference compound] | ca. ten-fold | ≤ 200 fold | decreased | No significant difference |  |  |  |  |  |  |  | 
2 | C[C@@H]1COCCN1c1cc(-c2ccccc2S(C)(=O)=O)c2cnn(-c3cc[nH]n3)c2n1 [Compound 43] |  |  |  |  | sensitized RNASEH2B-deficient cells to a similar extent |  |  |  |  |  |  | 
3 | C[C@@H]1COCCN1c1cc([C@@]2(O)C[C@H]3CC[C@@H](C2)O3)c2cnn(-c3cc[nH]n3)c2n1 [Compound 121] | ca. three-fold |  |  |  |  | synergistically sensitized | strongly synergized | synergistically sensitized | strong sensitization | strongly synergized | more sensitive | > 300 ×

Reference: patent US20210177856A1, “USE OF ATR INHIBITORS IN COMBINATION WITH PARP INHIBITORS” (Repare Therapeutics Inc., priority 2019, published 2021)
